From ChEMBL document CHEMBL6182879, “Synthesis and biological evaluation of novel 4-Arylaminoquinolines derivatives as EGFR/HDAC inhibitors” (Bioorg Med Chem Lett, 2025)

Experiment: Cytotoxicity against human 16-HBE cells by CCK8 assay
Conditions: 16hbe14o-

## O=C(CCCCCCC(=O)Nc1ccccc1)NO [VORINOSTAT]
  IC50: 50.6 µM
